# Assay results published in patent US5849737A, “Compositions and methods for treating pain” (priority 1995, dated 1998).
# “Also recorded” adds a separate entry of the source. Like-named read-outs stand apart in the source and are kept apart here.
# Tests used:
# [1] = system: tactile allodynia (paw withdrawal thresholds); experiment: Tactile allodynia (50% paw withdrawal threshold, von Frey) after intravenous drug, L5/L6 spinal nerve ligated rats; assay type: in vivo, Male Harlan Sprague-Dawley rats
# Source text: For intravascular access, external jugular catheters were fashioned from PE-50 tubing and inserted into an external jugular vein under halothane/oxygen anesthesia. Arterial catheters were also fashioned from PE-50 with a small bouton 1 cm from the intravascular end for suture securing; they were inserted into a carotid artery, taking care to spare the surrounding nerves. All catheters were flushed with heparinized saline (10 U/ml) and tunneled subcutaneously to emerge at the posterior base of the neck, and capped when not in use. […] Rats were placed in a plastic cage with an open wire mesh bottom and allowed to accommodate for approximately fifteen minutes. A series of 8 von Frey filaments with logarithmically incremental stiffness (0.41, 0.70, 1.20, 2.00, 3.63, 5.50, 8.50, and 15.10 g) (Stoelting, Wood Dale, Ill.) was used to determine the 50% threshold for paw withdrawal to light mechanical stimuli (PWT). In brief, von Frey hairs were sequentially applied using an up-and-down paradigm to the left mid-plantar hindpaw with sufficient force to cause slight filament buckling. Positive responses were noted if the paw was sharply withdrawn. […] Otherwise, PWT were calculated by noting the stimulus level at which the first change in behavior occurred, collecting four additional responses to the continued up-and-down oscillation of stimulus presentation around the response threshold, and interpolating the 50% response threshold. […] The following equation was used to compute %MPE: [formula] Plasma drug levels and PWT were correlated using linear regression. Serially measured PWT and %MPE were compared using repeated measures ANOVA.
# Solubility = assay type: physicochemical; conditions: IT vehicle 10% DMSO, 25% propylene glycol, 25% ethanol, 40% saline; injected volume 10 μl
# Source text: The free base forms of the compounds of general formula I are not water-soluble; for example, it was necessary to dissolve the free base of 3-hydroxylidocaine in a vehicle containing an empirically determined mixture of ethanol, dimethyl sulfoxide, propylene glycol and saline for application to the rat spinal cord. The physiologically-acceptable salt forms of the compounds of general formula I employed in accordance with the present invention, in contrast, are generally water-soluble to at least some degree, and the solubility properties thereof can be in many cases improved by conjugation. Unlike the free base forms of the compounds of general formula I, the salt forms may be administered by a variety of known routes [e.g., oral intravenous, intrathecal, local (e.g., intraneuromal), epidural, transdermal, etc.] as would be readily appreciated by those skilled in the art. As is conventional practice in the art, the active agent of general formula I is typically administered in a pharmaceutically acceptable carrier or excipient (e.g., saline).
# [2] = system: tactile allodynia (paw withdrawal thresholds); experiment: Mechanical allodynia after single i.p. dose in SD rats (left L5/L6 spinal nerve ligation); assay type: in vivo
# P450 PA(P45OIA2) enzyme = conditions: lidocaine metabolite formation; cited from earlier work
# [3] = DA rats; some species of rats; cited from earlier work
# [4] = cited from earlier work
# [5] = system: tactile allodynia (paw withdrawal thresholds); experiment: Mechanical allodynia after single i.p. dose in DA rats (left L5/L6 spinal nerve ligation); assay type: in vivo
# [6] = system: tactile allodynia (paw withdrawal thresholds); experiment: Tactile allodynia (50% paw withdrawal threshold, von Frey) after intrathecal drug, L5/L6 spinal nerve ligated rats; assay type: in vivo, Male Harlan Sprague-Dawley rats
# Description: Male Harlan Sprague-Dawley rats were used (100-200 g). Rats were housed 2-3 to a cage with corn cob bedding and Purina rat chow and water ad libitum, in a standard facility with a 12 h/ 12 h day/night cycle. After surgical procedures involving chronic indwelling catheter insertion, animals were housed singly to prevent catheter damage.
# Rats were allowed to recover 5-7 days before further testing or surgeries.
# The catheters were 9 cm in intrathecal length and terminated near the lumbar enlargement. The rostral 3 cm of catheter was tunneled under the skin to externalize between the ears. Rats with neurologic deficits were discarded.
# Monoethylglycinexylidide (MEGX) was dissolved in physiologic saline; 3-hydroxylidocaine (3-OH L) was dissolved in DMSO for intravenous administration.
# Intravenous drugs were delivered to awake, unrestrained rats by slow infusion using a syringe pump (Harvard apparatus 22). Intrathecal drugs were delivered to awake, briefly restrained rats in a volume of 10 μl, followed by 10 μl of vehicle flush, using a calibrated tubing extension with a 30-gauge adapter fitting the implanted intrathecal catheter, attached to a geared Hamilton 100 μl glass syringe. IT drug delivery was monitored by observing the advancement of a small air bubble down the tubing.
# Rats were placed in a plastic cage with an open wire mesh bottom and allowed to accommodate for approximately fifteen minutes. […] In brief, von Frey hairs were sequentially applied using an up-and-down paradigm to the left mid-plantar hindpaw with sufficient force to cause slight filament buckling. Positive responses were noted if the paw was sharply withdrawn. […] Otherwise, PWT were calculated by noting the stimulus level at which the first change in behavior occurred, collecting four additional responses to the continued up-and-down oscillation of stimulus presentation around the response threshold, and interpolating the 50% response threshold. […] The following equation was used to compute %MPE: [formula]
# Plasma drug levels and PWT were correlated using linear regression. Serially measured PWT and %MPE were compared using repeated measures ANOVA.
structure (smiles),measurement,setting,value
"CCN(CC)CC(=O)Nc1c(C)ccc(O)c1C [3-OH L, 3-hydroxylidocaine]",PWT after infusion,"[1]; 3-OH L IV in DMSO, 20 mg/kg total (FIG. 2), N=4, baseline 1.57±0.5 g, P=<0.0001",15 ± 0 g
same,"duration of effect on allodynia, IV route",[1]; IV,not by the IV route
same,potency and onset of allodynia suppression relative to lidocaine,[1]; IV 3-OH L compared with parent compound,more potent with regard to this effect; also recorded: far more rapid onset
same,allodynia suppression by IV delivery,"[1]; IV, N=4",highly active when administered intravenously; also recorded: both potent and effective at suppressing allodynia; also recorded: complete normalization
same,highest dose soluble in the vehicle,Solubility,58 µg
same,"duration of significant effect on allodynia, SD rats","[2]; 3-OHL 15 mg/kg i.p., N=6, P<0.05, followed for 7 days",up to 7 days
same,magnitude and duration of effect of 15 mg/kg 3-OHL relative to 60 mg/kg lidocaine in SD rats,[2]; i.p. (FIG. 7),apparently shorter duration
same,"effect on tactile allodynia, SD rats","[2]; single i.p. dose, lidocaine 60 mg/kg, 3-OHL 15 mg/kg (P<0.05)",persistently reduced allodynia in both strains; also recorded: persistent suppression of allodynia
same,enzyme producing the metabolite 3-OH L,P450 PA(P45OIA2) enzyme,produced by the P450 PA(P45OIA2) enzyme
same,3-hydroxylation / production of 3-OH L in rats,[3],Some species of rats predominantly produce 3-OH L
same,production of 3-OH L in humans,[4],humans do produce some 3-OH L
same,production of 3-OH L in humans,[4]; listed as 3-OHL,very small quantities
same,"duration of significant effect on allodynia, DA rats","[5]; 3-OHL 15 mg/kg i.p., N=5, P<0.002, followed for 7 days",up to 7 days
same,"effect on tactile allodynia, DA rats","[5]; single i.p. dose, lidocaine 60 mg/kg, 3-OHL 15 mg/kg (P<0.002)",persistently reduced allodynia in both strains; also recorded: persistent suppression of allodynia
same,persistence of allodynia suppression after single IT dose,"[6]; 3-OH L 58 μg IT single dose, follow-up period",5 days
same,thresholds at 5 days post treatment,"[6]; 3-OH L 58 μg IT, N=6, baseline 2.7±0.2, vehicle 2.2±0.5, P=0.0008, unit not given",9.3±2.5
same,PWT at 60 minutes after IT treatment,"[6]; 3-OH L 58 μg IT, baseline 2.3±0.39 g, P<0.0001",10.66 ± 2.3 g
same,"duration of effect on allodynia, IT route",[6]; IT,long lasting effect by the IT route
same,effect on allodynia thresholds after IT delivery,"[6]; IT, lidocaine 500 μg, MEGX 500 μg, 3-OH L 58 μg",suppressed allodynia after IT administration; also recorded: significantly effective at suppressing allodynia
